The text below walks through data of US20240424107A1, “PREPARATION OF SITE-SPECIFIC POLYPEPTIDE CONJUGATES” (POSTECH RESEARCH AND BUSINESS DEVELOPMENT FOUNDATION, priority 2023, published 2024).

For the data set, the target named is T1, Human-alpha thrombin (Homo sapiens, UniProt P00734).
T1 construct: Human-alpha thrombin and its well-known aptamers, HD1
As to the kind of experiment: Covalent conjugation of oxanine-containing aptamer to thrombin, conversion rate over time (SDS-PAGE/electrophoresis). It counts as biochemical. The note with it: thrombin 1.25 μM, HEPES pH 8.4, 37° C., FIG. 3. On the procedure: Human-alpha thrombin and its well-known aptamers, HD1 (15-mer length of aptamer that binds to exosite I of thrombin; 5′-[…]-3′; SEQ ID NO: 1) and HD2 (29-mer length of aptamer that binds to exosite II of thrombin; 5′-[…]-3′; SEQ ID NO: 2) were used. Each aptamer labeled with fluorescent dye at 5′-terminus and 10 dOTPs at 3′-terminus was prepared (See Example 1-1) and mixed with thrombin. Specifically, thrombin (1.25 μM), NaCl (100 mM), MgCl2 (5 mM), KCl (5 mM), Tween-20 (0.01% v/v), and oxanine-inserted HD1 (1 equiv. relative to thrombin) and HD2 (2 equiv. relative to thrombin) in HEPES (50 mM pH 8.4) were mixed at 37° C. for 1 day.
Whether the aptamer brings oxanine close to the amine group of the target protein, enabling proximity-enhanced covalent bond formation, was monitored with SDS-PAGE (protein bands) and electrophoresis (DNA bands). As a comparison group, aptamers HD1 and HD2 without oxanine introduced, or random DNA (not aptamer) with oxanine introduced, were used, and an untreated control group without any treatment with thrombin was also used for comparison.

Turning to “HD1: 15-mer thrombin exosite I aptamer 5′-GGTTGGTGTGGTTGG-3′ with fluorescent dye at 5′-terminus and 10 dOTPs (oxanine) at 3′-terminus (DNA, backbone not given here; 5' fluorescent dye, 3' tail of ten oxanine deoxynucleotides)”, the “time to reach 50% modification rate (conversion of aptamer to aptamer-thrombin conjugate)” value was at most 12.6 min. Next, “HD22: 29-mer thrombin exosite II aptamer 5′-AGTCCGTGGTAGGGCAGGTTGGGGTGACT-3′ with fluorescent dye at 5′-terminus and 10 dOTPs (oxanine) at 3′-terminus (DNA, backbone not given here; 5' fluorescent dye, 3' tail of ten oxanine deoxynucleotides)”: at most 101 min.
